Where two headings read alike, the source gives them in different places.
Target: T1, Ba/F3 KIF5B-RET (Homo sapiens, UniProt P07949, cells depend on it, form not given)
T1 construct: IC50 (nM); other: Experiment 1; other: Experiment 2; fused on or other part: P33176 (Kinesin-1 heavy chain)
Assay: Compound I anti-cell proliferation comparison (FIG. 5A, 5B)
Format: cell-based
Conditions: for GI50: read-out: IC50 (the source's name)
From the text: The KIF5B-RET gene was synthesized at GenScript and cloned into pCDH-CMV-MCS-EF1-Puro plasmid (System Biosciences, Inc). KIF5B-RET point mutation V804M and G810C were generated at GenScript by PCR and confirmed by sequencing. Ba/F3-KIF5B-RET wild type and mutant were generated by transducing Ba/F3 cells with lentivirus containing KIF5B-RET wide type or mutant. Stable cell lines were selected by puromycin treatment, followed by IL-3 withdrawal. Briefly, 5×10^6 Ba/F3 cells were transduced with lentivirus supernatant in the presence of 8 μg/mL protamine sulfate. The transduced cells were subsequently selected with 1 μg/mL puromycin in the presence of IL3-containing medium RPMI1640, plus 10% FBS. After 10-12 days of selection, the surviving cells were further selected for […] independent growth.
Two thousand cells per well were seeded in 384 well white plate for 24 hrs, and then treated with compounds for 72 hours (37° C., 5% CO2). Cell proliferation was measured using CellTiter-Glo luciferase-based ATP detection assay (Promega) following the manufactures's protocol. IC50 determinations were performed using GraphPad Prism software (GraphPad, Inc., San Diego, Calif.).

T1 sequence (P07949 whole entry G810C, form open, the tested form may be a part): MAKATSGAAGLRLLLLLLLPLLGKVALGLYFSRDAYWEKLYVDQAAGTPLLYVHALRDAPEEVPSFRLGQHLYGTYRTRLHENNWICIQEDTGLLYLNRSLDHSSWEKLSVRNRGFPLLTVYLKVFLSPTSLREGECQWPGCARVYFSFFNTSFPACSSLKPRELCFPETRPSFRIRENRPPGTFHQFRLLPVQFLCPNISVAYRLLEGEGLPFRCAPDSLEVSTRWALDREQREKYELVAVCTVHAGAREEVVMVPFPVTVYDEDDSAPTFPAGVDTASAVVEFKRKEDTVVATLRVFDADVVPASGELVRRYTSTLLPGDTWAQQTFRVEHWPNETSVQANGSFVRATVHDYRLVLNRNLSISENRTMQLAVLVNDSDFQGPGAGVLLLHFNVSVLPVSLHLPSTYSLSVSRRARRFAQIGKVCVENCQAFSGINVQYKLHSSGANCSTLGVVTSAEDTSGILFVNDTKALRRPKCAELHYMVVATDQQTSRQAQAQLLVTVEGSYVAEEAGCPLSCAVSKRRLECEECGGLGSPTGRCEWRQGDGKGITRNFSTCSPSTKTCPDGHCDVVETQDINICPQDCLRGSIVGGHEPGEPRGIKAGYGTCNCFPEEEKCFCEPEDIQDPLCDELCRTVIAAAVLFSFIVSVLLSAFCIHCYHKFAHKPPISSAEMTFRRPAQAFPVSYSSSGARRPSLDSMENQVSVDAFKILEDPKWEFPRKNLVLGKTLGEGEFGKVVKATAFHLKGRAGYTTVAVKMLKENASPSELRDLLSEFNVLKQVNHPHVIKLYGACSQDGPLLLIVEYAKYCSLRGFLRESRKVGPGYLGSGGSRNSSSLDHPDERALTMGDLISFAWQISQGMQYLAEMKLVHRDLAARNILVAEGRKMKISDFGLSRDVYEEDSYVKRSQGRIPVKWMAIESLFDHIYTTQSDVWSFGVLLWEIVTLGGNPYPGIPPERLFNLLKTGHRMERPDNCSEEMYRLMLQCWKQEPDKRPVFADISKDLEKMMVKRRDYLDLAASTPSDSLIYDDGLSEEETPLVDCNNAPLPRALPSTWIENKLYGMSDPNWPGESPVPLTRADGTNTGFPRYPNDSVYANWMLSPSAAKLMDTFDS

With `COc1ccc(CN2C3CC2CN(c2ccc(-c4cc(OCC(C)(C)O)cn5ncc(C#N)c45)cn2)C3)cn1` [LOXO-292] the “IC75” value (Experiment 1) was 1021 nM, the IC90 (Experiment 1) was 3450 nM and the GI50 (Experiment 1) was 301 nM. The “IC75” value (Experiment 2) was 791.4 nM, the IC90 (Experiment 2) was 2370 nM and the GI50 (Experiment 2) was 364 nM.

— patent US20220411439A1, “POLYMORPHS OF A MACROCYCLIC KINASE INHIBITOR” (TURNING POINT THERAPEUTICS, INC., priority 2019, published 2022)
